Experiment [1] can be described thus: Inhibitory activity of against carboxypeptidase A (CPA).
Experiment [2] concerns the target T1, Carboxypeptidase A1 (Homo sapiens) (UniProt P15085).
T1 sequence (whole entry): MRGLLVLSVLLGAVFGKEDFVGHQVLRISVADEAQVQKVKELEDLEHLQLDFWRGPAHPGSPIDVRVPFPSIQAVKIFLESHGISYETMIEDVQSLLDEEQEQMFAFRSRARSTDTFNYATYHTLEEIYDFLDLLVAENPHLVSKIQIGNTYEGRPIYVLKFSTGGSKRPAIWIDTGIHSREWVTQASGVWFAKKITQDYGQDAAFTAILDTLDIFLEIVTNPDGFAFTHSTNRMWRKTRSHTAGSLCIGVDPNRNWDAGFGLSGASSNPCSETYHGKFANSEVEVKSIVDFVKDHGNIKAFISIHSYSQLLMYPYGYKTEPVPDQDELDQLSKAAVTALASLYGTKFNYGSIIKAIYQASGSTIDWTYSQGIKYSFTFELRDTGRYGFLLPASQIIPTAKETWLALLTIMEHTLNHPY
Put plainly: Inactivation potency of compound against carboxypeptidase A (CPA).

The nature of experiment [3]: Partition ratio (Kcat/Kinact) was calculated.
Experiment [4] is described as follows: Kinetic constant against carboxypeptidase A (CPA).

SMILES strings stand for the structures.

Usually Ki stands for a measure of affinity in units of concentration, obtained from inhibition or displacement. Low readings indicate a stronger hold on the target, high ones a looser hold on the target.

The compound `O=C1N[C@@H]([C@@H](Cc2ccccc2)C(=O)O)CO1` came in with a Ki in experiment [1] of 1650 µM. In addition, the K inact/Ki in experiment [2] was found to be 1.52 M⁻¹ s⁻¹. Also, the Ratio in experiment [3] was 94. In experiment [4], this compound displayed a K inact of 0.115 min⁻¹.

Take `O=C1N[C@H]([C@H](Cc2ccccc2)C(=O)O)CO1`: the Ki in experiment [1] is 900 µM. Also, the K inact/Ki in experiment [2] is 1.39 M⁻¹ s⁻¹. In addition, the Ratio in experiment [3] was 120. In experiment [4], the K inact was 0.075 min⁻¹.

The values above are taken from ChEMBL document CHEMBL1130784, “Irreversible inhibition of zinc-containing protease by oxazolidinone derivatives. Novel inactivation chemistry” (Bioorg Med Chem Lett, 1998).
